# Columns and labels:
# Assay type in all cases: cell-based, human
# [1] = tested on: hMLH1-proficient RKO cells; experiment: ROS level, H2DCFDA probe, MMR-proficient RKO; conditions: 1 h of exposure, vs control
# Method: Then, we confirmed whether the induction of cellular stress by 20d is related to MMR deficiency by exposing MMR-deficient and MMR-proficient cells to the compound for different times and measuring the ROS levels. Our results indicated a greater increase in the level of ROS after 1 h of exposure in 20d-treated MMR-deficient cells than in MMR-proficient cells (54.71 ± 2.70% and 22.27 ± 1.7%, respectively), in comparison to control (Fig. 7).
# The […] ROS levels were determined using an H2DCFDA (2′,7′-dichlorodihydrofluorescein diacetate) probe (Thermo Fisher) following the manufacturer’s protocol. […] DMSO (1%, Merck) and 250 μM H2O2 were used as a negative and positive control, respectively. NAC (500 μM, Sigma-Aldrich) was used as an ROS scavenger to confirm the ROS activity. After treatment with 20d and 19b, cells were incubated with H2DCFDA at 37 °C for 30 min. Subsequently, cells were harvested by trypsinization, rinsed with PBS, and stained with 7-AAD (Thermo Fisher). Finally, the stained cells were analyzed by flow cytometry using a Guava easyCyte 8 cell sorter (Merck Millipore) and FlowJo v10 software.
# [2] = tested on: A-549 cells; experiment: ROS level, H2DCFDA probe, flow cytometry, A-549; conditions: A-549, IC50 concentration, 1-24 h
# [3] = tested on: HCT-116 cells; experiment: Annexin V-FITC / PI staining, flow cytometry; conditions: HCT-116, Annexin V/PI
# Source text: Due to its ability to mediate the redox signaling pathways, ROS interplays between two major types of programmed cell death: autophagy and apoptosis. One of the early events in the process of apoptosis is the translocation of phosphatidylserine to the exposed membrane surface, which can be detected using Annexin V, a protein with a high affinity to this phospholipid. In order to study the impact of 20d on apoptotic cell death, flow cytometry analyses with double-staining using Annexin V-fluorescein isothiocyanate (FITC) conjugate and propidium ioidide (PI) was performed.
# To determine the proapoptotic activity of compounds, cells were seeded into Petri dishes. […] DMSO (1%, Merck) and Etoposide (10 μM, Sigma-Aldrich) were used as references. Cells were harvested and stained with FITC-Annexin V, (Thermo Fisher, V13242) according to the manufacturer’s instructions. Finally, cells were stained with propidium iodide (Thermo Fisher) and assessed using a Guava easyCyte 8 cell sorter (Merck Millipore). The results were analyzed using FlowJo v10 software.
# [4] = tested on: HCT-116 cells; experiment: Colony formation (clonogenic) assay; conditions: HCT-116, 24 h pretreatment, 9 days culture
# Method: A total of 500 HCT-116 cells/well was seeded into six-well plates. After attachment, cells were pretreated with DMSO (1%) or various concentrations of 20d and 19b for 24 h. Following incubation, the medium was changed, and cells were cultured for 9 days. After culturing, cells were washed with phosphate-buffered saline (PBS), fixed with 100% methanol for 30 min, and then stained with 0.5% crystal violet for 15 min. The plates were air-dried, and visible colonies were counted using ImageJ software. The percentage viability of cells was calculated in comparison to the control.
# [5] = tested on: A-549 cells; experiment: MTT cell viability assay, A-549
# Method: To evaluate the effects of the newly synthesized tetrahydroquinolin-2(1H)-one derivatives on cell viability, we treated human colon cancer cells HCT-116, human breast cancer cells MCF-7, and human non-small cell lung cancer cells A-549 with different concentrations of the compounds for 72 h. After incubation, the MTT (3-(4,5-dimethylthiazol-2-yl)-2,5-diphenyltetrazolium bromide) assay was performed and the cytotoxic potency of compounds (expressed in IC50) on the cells was determined in comparison to control cells treated with 1% of dimethyl sulfoxide (DMSO) (Table 1). […] We also compared the activity of 20d and 19b to the reference control drug Cisplatin, which is widely used in chemotherapy.
# A-549 (CCL-185) and MCF-7 ([…]) cells were cultured in RPMI-1640 medium, while HCT-116 (CVCL-427), (hMLH1)-deficient (MMR^–) and hMLH1-proficient (MMR^+) RKO cells were cultured in McCoy’s 5A medium. The culture media were supplemented with 10% fetal bovine serum, 2 mM L-glutamine, and antibiotics (penicillin 62.6 µg/ml and streptomycin 40 µg/ml). Cultivation of cell lines was carried out at 37 °C under a humidified atmosphere containing 5% CO2, and the cultures were routinely screened for Mycoplasma contamination. A-549, MCF-7, and HCT-116 cells were obtained from American Type Culture Collection (ATCC), while RKO colon carcinoma cells were a kind gift of Dr Timothy Kinsella (Brown University, USA).
# The viability of cells was determined in response to the newly synthesized compounds using the MTT (Sigma-Aldrich) assay. Briefly, cells were seeded into 96-well plates and allowed to attach overnight. Then, cells were exposed to various concentrations of compounds for 24, 48 or 72 h. Negative controls were treated with the same amount of DMSO solvent (1%). After treatment, the MTT solution (0.4 mg/ml) was added to each well and allowed to react with cells for 2–3 h at 37 °C. Next, the medium was removed, the formazan product formed was dissolved in 100 μl of DMSO, and the absorbance was determined at 540 nm using an ASYS UVM340 microplate reader (Biochrom Ltd.). The IC50 value, which represents the concentration of the compound required to inhibit cell growth by 50% compared to vehicle, was calculated using GraphPad Prism 8 software based on the curves plotting survival against dose averaged from at least three independent experiments.
# [6] = tested on: HCT-116 cells; experiment: Acridine orange staining of acidic vesicular organelles; conditions: HCT-116, p < 0.01
# Source text: Then, to elucidate whether compound 20d can act as an autophagy modulator, we stained cells with acridine orange (AO), a lysotropic agent. AO is a weak base that can permeate the cell membrane in an uncharged state emitting green fluorescence. After protonation, AO forms aggregates in acidic vesicular organelles (AVOs), emitting red fluorescence. […] One of the hallmarks of autophagy is the conjugation of LC3-I with phosphatidylethanolamine, followed by its conversion to autophagosome-associated form LC3-II[39]. Taking this into account, we evaluated the expression of LC3I/II in colon cancer cells after exposure to 20d. Furthermore, we studied the expression of LAMP-1, a well-known lysosomal marker. […] This observation was also confirmed by increased punctate cytosolic LC3 fluorescence intensity when HCT-116 cells were assessed by confocal microscopy (Fig. 8e,g). […] It has been shown that multiple signaling pathways are involved in the modulation of autophagy, including the PI3K/AKT/mTOR pathway, which is especially involved in the stage of autophagosome elongation[41],[42]. In this study, we investigated whether 20d-induced autophagy in HCT-116 cells is related to PI3K/AKT/mTOR signaling. […] This proves that 20d induced autophagy cell death in HCT-116 cells by interfering with the PI3K/AKT/mTOR signaling pathway.
smiles,measurement,setting,value
"O=C(Nc1cccc(F)c1)OC1CCCc2c(-c3ccccc3)cc(=O)[nH]c21 (stereo not shown) [Compound 20d, (2-oxo-4-phenyl-5,6,7,8-tetrahydroquinolin-8-yl) N-(3-fluorophenyl)carbamate]",increase in the level of ROS,[1],22.27 ± 1.7%
same,increase in ROS level compared to vehicle,[2],~5%
same,early and late apoptotic and necrotic fractions,[3],on the same level as in DMSO-treated group
same,formation of colonies,[4],effectively inhibited the formation of colonies in a concentration-dependent manner
same,fold lower concentration than Cisplatin suppressing 50% of cell viability,[5]; A-549,5 fold
same,IC50,"[5]; Homo sapiens, A549, MTT, 72 h, IC50 ± SD",12.6 ± 0.54 µM
same,increase in red fluorescence (AVOs) in comparison to vehicle,[6],1.9 fold
